From patent US20100247517A1, “USE OF MNK INHIBITORS FOR THE TREATMENT OF ALZHEIMER'S DISEASE” (Boehringer Ingelheim Internationational GmbH, priority 2007, published 2010)

Columns and labels:
Human Mnk1-GST = biological target: T1, Human Mnk1-GST (Homo sapiens, UniProt Q9BUB5); experiment: In vitro phosphorylation of human Tau by Mnk1 (kinase reaction, immunoblotting); type: biochemical
T1 construct: GST; made in house; host or cells: E. coli
Experimental: (§1) Kinase reaction: The kinase reactions were carried out in a total volume of 30 μl in reaction buffer (20 mM HEPES/KOH pH 7.4, 10 mM MgCl2, 2 mM DTT, 0.1% Pluronic F127, 0.01% BSA) containing 500 μM ATP, 0.5 μM human recombinant Tau (USBiological, T1040-10), inhibitors and kinases as indicated in figures. Human Mnk1-GST and Mnk2-GST was expressed in E. coli and purifies by Äkta Explorer 100 (Amersham) and pre-activated by human recombinant Erk2 (DeveloGen). Aliquots were stored at −80° C. up to use. Recombinant human PKA (Calbiochem, 539482) was used as positive control. All components of reactions were pre-diluted in reaction buffer. […] Samples were analysed by Immunoblotting.
(§2) Immunoblotting: Laemmli sample buffer (Biorad) was added to the stopped kinase reactions, subjected to SDS-PAGE and electroblotted on a nitrocellulose membrane (Schleicher & Schüll). The transferred membrane was incubated with NET-G buffer (50 mM Tris/HCl pH 7.5, 5 mM EDTA, 150 mM NaCl, 0.05% Triton X-100, 0.25% (w/v) gelatine) containing 1/1000 (v/v) anti Tau (phospho S262) or anti Tau (phospho S356) antibodies (Abcam, ab4856 and ab4857) over night at 4° C. After washing with NET-G buffer the membrane was treated with NET-G buffer containing 1/5000 (v/v) HRP-conjugated anti rabbit IgG antibody (Pierce) for 2 hours at room temperature.
(§3) For loading control membrane was stripped with stripping buffer (200 mM glycine/HCl pH 2.2, 0.1% SDS, 0.1% Tween 20) for 3 hours at room temperature. The membrane was then treated with NET-G buffer containing 1/4000 (v/v) anti Tau antibody (Abcam, ab19326). After washing with NET-G buffer the membrane was incubated with NET-G buffer containing 1/5000 (v/v) HRP-conjugated anti goat IgG antibody (DakoCytomation). Signals were detected with chemiluminescence using ECL Super Signal West Dura kit (Pierce).

Human Mnk2-GST = biological target: T2, Human Mnk2-GST (Homo sapiens, UniProt Q9HBH9); experiment: In vitro phosphorylation of human Tau by Mnk2 (kinase reaction, immunoblotting); type: biochemical
T2 construct: GST; made in house; host or cells: E. coli
T2 sequence (Q9HBH9 whole entry): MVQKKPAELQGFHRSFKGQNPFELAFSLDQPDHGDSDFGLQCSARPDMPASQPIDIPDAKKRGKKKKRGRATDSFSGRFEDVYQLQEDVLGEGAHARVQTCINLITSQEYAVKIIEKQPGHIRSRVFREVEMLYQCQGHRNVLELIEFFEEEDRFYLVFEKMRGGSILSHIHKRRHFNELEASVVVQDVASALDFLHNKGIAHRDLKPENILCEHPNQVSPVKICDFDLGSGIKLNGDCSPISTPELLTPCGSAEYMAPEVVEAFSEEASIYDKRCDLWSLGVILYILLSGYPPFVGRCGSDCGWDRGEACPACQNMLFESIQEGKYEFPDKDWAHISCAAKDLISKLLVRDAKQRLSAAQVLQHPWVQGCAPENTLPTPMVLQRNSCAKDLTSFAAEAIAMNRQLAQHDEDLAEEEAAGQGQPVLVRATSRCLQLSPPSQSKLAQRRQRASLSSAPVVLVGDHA
Experimental: as §1, §2, §3

[1] = results summary of FIG. 2 / FIG. 3

T1 sequence (Q9BUB5 whole entry): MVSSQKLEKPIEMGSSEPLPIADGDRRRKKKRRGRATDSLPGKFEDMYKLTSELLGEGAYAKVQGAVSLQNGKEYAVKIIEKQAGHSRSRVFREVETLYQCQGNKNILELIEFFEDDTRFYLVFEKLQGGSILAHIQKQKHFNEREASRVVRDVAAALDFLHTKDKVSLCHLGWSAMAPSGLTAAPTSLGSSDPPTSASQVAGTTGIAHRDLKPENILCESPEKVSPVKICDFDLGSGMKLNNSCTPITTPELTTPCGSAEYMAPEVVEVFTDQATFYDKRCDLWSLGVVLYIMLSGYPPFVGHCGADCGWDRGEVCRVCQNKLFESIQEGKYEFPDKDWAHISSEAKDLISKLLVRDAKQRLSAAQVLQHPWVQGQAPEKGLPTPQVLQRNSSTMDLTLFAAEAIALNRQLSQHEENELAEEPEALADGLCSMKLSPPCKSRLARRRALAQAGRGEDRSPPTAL

CCOc1cc(C(N)=O)ccc1Nc1ncnc2scc(C)c12 [EDJ101401, 3-ethoxy-4-(5-methyl-thieno[2,3-D]pyrimidine-4-ylamino)-benzamide]
in a dose dependent manner: inhibition of in vitro phosphorylation of Ser262 in human Tau by Mnk1 (Human Mnk1-GST; 0.5 μM human Tau, 500 μM ATP, 120 min at 37° C., Erk2 (5 nM) used to activate Mnk, Western blot, FIG. 2A) | inhibition of in vitro phosphorylation of Ser356 in human Tau by Mnk1 (Human Mnk1-GST; 0.5 μM human Tau, 500 μM ATP, 120 min at 37° C., Erk2 (5 nM) used to activate Mnk, Western blot, FIG. 2B) | inhibition of in vitro phosphorylation of Ser262 in human Tau by Mnk2 (Human Mnk2-GST; 0.5 μM human Tau, 500 μM ATP, 120 min at 37° C., Western blot, FIG. 2A / 3A) | inhibition of in vitro phosphorylation of Ser356 in human Tau by Mnk2 (Human Mnk2-GST; 0.5 μM human Tau, 500 μM ATP, 120 min at 37° C., Western blot, FIG. 2B / 3B)
dose-dependent inhibition: inhibition of Mnk1-dependent tau phosphorylation (Human Mnk1-GST; [1]) | inhibition of Mnk2-dependent tau phosphorylation (Human Mnk2-GST; [1])
